Data taken from patent US20070098782A1, “Ramipril Formulation” (Selamine Limited, priority 2005, published 2007).

What was measured:
[1] = 1 mg/ml ramipril solution in buffer, principal impurity after 12 hours at 50° C.; assay type: physicochemical
Protocol: An experiment was carried out in which 50 mg of ramipril was dispersed in 50 ml water and known concentrations of buffer were added. The solutions were placed in a stoppered bottle and stored for 12 hours at 50° C.

[2] = target: angiotensin converting enzyme (ACE) (Homo sapiens, UniProt P12821); conditions: cited from earlier work
Sequence of angiotensin converting enzyme (ACE) (P12821 30-1306, species assumed): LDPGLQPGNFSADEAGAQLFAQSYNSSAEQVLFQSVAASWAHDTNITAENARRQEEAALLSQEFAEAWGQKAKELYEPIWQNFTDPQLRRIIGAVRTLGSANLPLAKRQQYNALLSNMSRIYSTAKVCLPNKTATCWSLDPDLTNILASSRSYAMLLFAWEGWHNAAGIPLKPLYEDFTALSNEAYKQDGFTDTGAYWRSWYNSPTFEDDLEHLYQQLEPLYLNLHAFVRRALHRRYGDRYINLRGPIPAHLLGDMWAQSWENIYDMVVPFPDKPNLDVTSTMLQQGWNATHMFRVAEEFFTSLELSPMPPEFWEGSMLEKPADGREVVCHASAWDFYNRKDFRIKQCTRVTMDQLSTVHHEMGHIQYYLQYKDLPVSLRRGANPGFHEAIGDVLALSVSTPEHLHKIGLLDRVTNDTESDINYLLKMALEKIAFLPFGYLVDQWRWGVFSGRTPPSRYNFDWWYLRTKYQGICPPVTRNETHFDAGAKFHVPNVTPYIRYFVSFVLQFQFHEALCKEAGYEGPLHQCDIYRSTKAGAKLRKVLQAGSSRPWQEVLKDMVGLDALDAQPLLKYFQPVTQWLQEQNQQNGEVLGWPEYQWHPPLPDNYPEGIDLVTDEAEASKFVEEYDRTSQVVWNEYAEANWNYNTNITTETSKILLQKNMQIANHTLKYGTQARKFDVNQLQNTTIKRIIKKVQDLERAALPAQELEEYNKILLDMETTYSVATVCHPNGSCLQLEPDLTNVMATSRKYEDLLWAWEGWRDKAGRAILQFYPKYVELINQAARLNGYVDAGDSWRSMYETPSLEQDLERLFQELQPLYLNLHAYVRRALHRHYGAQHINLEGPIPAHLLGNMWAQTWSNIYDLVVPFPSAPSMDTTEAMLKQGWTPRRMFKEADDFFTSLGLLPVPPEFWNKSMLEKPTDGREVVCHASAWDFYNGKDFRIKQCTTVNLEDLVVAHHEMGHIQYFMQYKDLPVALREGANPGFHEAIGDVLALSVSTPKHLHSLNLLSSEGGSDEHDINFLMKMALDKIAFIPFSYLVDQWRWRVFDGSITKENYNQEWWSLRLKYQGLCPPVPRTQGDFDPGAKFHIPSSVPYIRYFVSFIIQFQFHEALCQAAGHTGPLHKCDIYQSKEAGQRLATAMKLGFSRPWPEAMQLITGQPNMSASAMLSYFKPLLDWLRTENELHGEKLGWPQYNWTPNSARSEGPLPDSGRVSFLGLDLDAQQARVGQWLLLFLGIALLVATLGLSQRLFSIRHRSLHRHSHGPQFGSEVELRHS

[3] = buffer Sodium carbonate 0.24 mg/ml
[4] = buffer Sodium carbonate 0.74 mg/ml
[5] = buffer Sodium carbonate 1.00 mg/ml
[6] = buffer Sodium citrate 0.72 mg/ml
[7] = buffer Sodium citrate 1.00 mg/ml
[8] = buffer Sodium citrate 1.90 mg/ml

Molecule: CCOC(=O)[C@H](CCc1ccccc1)N[C@@H](C)C(=O)N1[C@H](C(=O)O)C[C@@H]2CCC[C@@H]21 [Ramipril, (2S,3aS,6aS)-1[(S)-N-[(S)-1-carboxy-3-phenylpropyl]alanyl] octahydrocyclopenta[b]pyrrole-2-carboxylic acid, 1-ethyl ester]
- Impurity D ([1]; buffer L arginine 1.44 mg/ml): 0.16%
- Impurity E ([1]; buffer L arginine 1.44 mg/ml): 13.7%
- Impurity D [1, 3]: 0.22%
- Impurity E [1, 3]: 9.9%
- Impurity D [1, 4]: 0.19%
- Impurity E [1, 4]: 11.3%
- Impurity D [1, 5]: 0.17%
- Impurity E [1, 5]: 15.2%
- Impurity D [1, 6]: 0.22%
- Impurity E [1, 6]: 8.2%
- Impurity D [1, 7]: 0.23%
- Impurity E [1, 7]: 8.4%
- Impurity D [1, 8]: 0.20%
- Impurity E [1, 8]: 7.5%

Molecule: C[C@H](N[C@@H](CCc1ccccc1)C(=O)O)C(=O)N1[C@H](C(=O)O)C[C@@H]2CCC[C@@H]21 [ramiprilat]
- potency as an ACE inhibitor relative to the parent compound ramipril ([2]; compared with ramipril): up to 6 times

Molecule: ramipril diketopiperazine
- activity as an ACE inhibitor [2]: not active
